The compounds below were run on NF-κB (assay: NF-κB assay: THP1-NF-κB-LUC cells, LPS-stimulated secreted luciferase). Conditions: THP1-NF-κB-LUC cells; compounds 2 hours before LPS (10 ng/mL) for 18 hours; secreted luciferase; read-out: IC50 (NF-κB assay).
Assay type: cell-based
Outline: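 THP1-NF-κB-LUC cells (25k/well) were pretreated with compounds for 2 h, then stimulated with LPS (10 ng/mL) for 18 h. Secreted luciferase was measured and normalized to vehicle, and IC50 was fitted from the concentration series.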

| Compound | IC50 [µM] |
| --- | --- |
| CCN(c1ccccc1)S(=O)(=O)c1cc2c(cc1C)NC(=O)CO2 [BC181345] | > 10 |
| Cc1ccc(NS(=O)(=O)c2cc3c(cc2C)NC(=O)CO3)c(C)c1 [BC181346] | > 10 |
| CCc1cccc(NS(=O)(=O)c2cc3c(cc2C)NC(=O)CO3)c1 [BC181347] | 1 to 10 |
| CCN(CC)c1ccc(NS(=O)(=O)c2cc3c(cc2C)NC(=O)CO3)c(C)c1 [BC181348] | > 10 |
| CCN(c1ccc(OC)cc1)S(=O)(=O)c1cc2c(cc1C)NC(=O)CO2 [BC181349] | > 10 |
| CC(=O)N1CCOc2cc(S(=O)(=O)Nc3cccc(Cl)c3)c(C)cc21 [BC181350] | 1 to 10 |
| CCc1ccc(NS(=O)(=O)c2cc3c(cc2C)N(C)CCO3)cc1 [BC181352] | > 10 |
| Cc1ccc(NS(=O)(=O)c2cc3c(cc2C)NC(=O)CO3)cc1F [BC181353] | < 0.1 |
| Cc1cc2c(cc1S(=O)(=O)Nc1cccc(Cl)c1)OCC(=O)N2 [BC181354] | < 0.1 |
| Cc1cc2c(cc1S(=O)(=O)Nc1ccc(Cl)cc1)OCC(=O)N2 [BC181355] | < 0.1 |
| CCc1ccccc1NS(=O)(=O)c1cc2c(cc1C)NC(=O)CO2 [BC181356] | > 10 |
| COc1ccc(OC)c(NS(=O)(=O)c2cc3c(cc2C)NC(=O)CO3)c1 [BC181357] | > 10 |
| COc1ccc(Cl)cc1NS(=O)(=O)c1cc2c(cc1C)NC(=O)CO2 [BC181358] | > 10 |
| Cc1cccc(N(C)S(=O)(=O)c2cc3c(cc2C)NC(=O)CO3)c1 [BC181359] | > 10 |
| COc1ccc(OC)c(N(C)S(=O)(=O)c2cc3c(cc2C)NC(=O)CO3)c1 [BC181360] | > 10 |
| CC(=O)N1CCOc2cc(S(=O)(=O)Nc3ccc(Cl)cc3)c(C)cc21 [BC181361] | 0.1 to 1 |
| CC(=O)N1CCOc2cc(S(=O)(=O)Nc3ccc(C(C)C)cc3)c(C)cc21 [BC181362] | 1 to 10 |
| Cc1cc2c(cc1S(=O)(=O)Nc1cccc(F)c1)OCCN2C [BC181363] | > 10 |
| Cc1cc2c(cc1S(=O)(=O)Nc1ccc(F)c(F)c1)OCC(=O)N2 [BC181364] | 0.1 to 1 |
| Cc1cc2c(cc1S(=O)(=O)Nc1cc(C(F)(F)F)cc(C(F)(F)F)c1)OCC(=O)N2 [BC181365] | 1 to 10 |
| Cc1ccc(Cl)cc1NS(=O)(=O)c1cc2c(cc1C)NC(=O)CO2 [BC181366] | 1 to 10 |
| CCc1ccc(NS(=O)(=O)c2cc3c(cc2C)NC(=O)CO3)cc1 [BC181367] | < 0.1 |
| Cc1ccc(NS(=O)(=O)c2cc3c(cc2C)NC(=O)CO3)cc1C [BC181368] | 1 to 10 |

Next, values leading:

| IC50 [µM] | Compound |
| --- | --- |
| 1 to 10 | COc1ccc(NS(=O)(=O)c2cc3c(cc2C)NC(=O)CO3)cc1Cl [BC181369] |
| < 0.1 | Cc1ccc(NS(=O)(=O)c2cc3c(cc2C)NC(=O)CO3)cc1 [BC181370] |
| > 10 | CC(=O)c1ccc(NS(=O)(=O)c2cc3c(cc2C)N(C(C)=O)CCO3)cc1 [BC181371] |
| 1 to 10 | CC(=O)N1CCOc2cc(S(=O)(=O)Nc3ccc(F)cc3F)c(C)cc21 [BC181372] |
| > 10 | CCc1cccc(NS(=O)(=O)c2cc3c(cc2C)N(C(C)=O)CCO3)c1 [BC181373] |
| > 10 | CCOc1ccc(NS(=O)(=O)c2cc3c(cc2C)N(C)CCO3)cc1 [BC181374] |
| 0.1 to 1 | Cc1cc2c(cc1S(=O)(=O)Nc1ccc(F)cc1Cl)OCC(=O)N2 [BC181375] |
| > 10 | COc1ccc(NS(=O)(=O)c2cc3c(cc2C)NC(=O)CO3)c(OC)c1 [BC181376] |
| < 0.1 | Cc1cc2c(cc1S(=O)(=O)Nc1cccc(F)c1)OCC(=O)N2 [BC181377] |
| 1 to 10 | Cc1cc(C)cc(NS(=O)(=O)c2cc3c(cc2C)NC(=O)CO3)c1 [BC181378] |
| > 10 | CCOc1ccccc1NS(=O)(=O)c1cc2c(cc1C)NC(=O)CO2 [BC181379] |
| 0.1 to 1 | Cc1cc2c(cc1S(=O)(=O)Nc1ccccc1Cl)OCC(=O)N2 [BC181380] |
| > 10 | COc1ccc(NS(=O)(=O)c2cc3c(cc2C)N(C(C)=O)CCO3)cc1OC [BC181381] |
| > 10 | COc1ccc(NS(=O)(=O)c2cc3c(cc2C)N(C(C)=O)CCO3)c(OC)c1 [BC181382] |
| 0.1 to 1 | CC(=O)N1CCOc2cc(S(=O)(=O)Nc3ccc(C)c(F)c3)c(C)cc21 [BC181383] |
| 1 to 10 | Cc1cc2c(cc1S(=O)(=O)Nc1ccc(C(C)C)cc1)OCCN2C [BC181384] |
| > 10 | CC(=O)Nc1ccc(NS(=O)(=O)c2cc3c(cc2C)NC(=O)CO3)cc1 [BC181385] |

Same assay, conditions: read-out: IC50 (NF-κB assay)

| Compound | IC50 [µM] |
| --- | --- |
| CC(=O)N1CCOc2cc(S(=O)(=O)Nc3ccccc3C)c(C)cc21 [BC181351] | > 10 |

— patent publication US12606528B2, “Methods and materials for inhibiting NF-kB activity” (University of Pittsburgh - Of the Commonwealth System of …, priority 2019, dated 2026)
